According to patent US20250144094A1 (Erasca, Inc., priority 2021, published 2025):

Biological target: Recombinant human ULK1 (1-649) (Homo sapiens (Human), UniProt O75385)
Assay: ULK1 ADP Glo kinase activity assay, new method (ULKtide peptide substrate)
Settings: 25° C., 40 minutes, read-out: ULK1 biochemical IC50
In short: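 Kinase activity was read as ADP production (ADP-Glo, luminescence 30 min after detection reagent) following a 40-min, 25 °C reaction of Sf9-expressed GST-ULK1 (1-649) with ULKtide substrate and ATP. Compounds ran as 12-point series starting at 10 μM; four-parameter curve fitting versus DMSO wells gave IC50.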

Recombinant human ULK1 (1-649), sequence (O75385 1-649): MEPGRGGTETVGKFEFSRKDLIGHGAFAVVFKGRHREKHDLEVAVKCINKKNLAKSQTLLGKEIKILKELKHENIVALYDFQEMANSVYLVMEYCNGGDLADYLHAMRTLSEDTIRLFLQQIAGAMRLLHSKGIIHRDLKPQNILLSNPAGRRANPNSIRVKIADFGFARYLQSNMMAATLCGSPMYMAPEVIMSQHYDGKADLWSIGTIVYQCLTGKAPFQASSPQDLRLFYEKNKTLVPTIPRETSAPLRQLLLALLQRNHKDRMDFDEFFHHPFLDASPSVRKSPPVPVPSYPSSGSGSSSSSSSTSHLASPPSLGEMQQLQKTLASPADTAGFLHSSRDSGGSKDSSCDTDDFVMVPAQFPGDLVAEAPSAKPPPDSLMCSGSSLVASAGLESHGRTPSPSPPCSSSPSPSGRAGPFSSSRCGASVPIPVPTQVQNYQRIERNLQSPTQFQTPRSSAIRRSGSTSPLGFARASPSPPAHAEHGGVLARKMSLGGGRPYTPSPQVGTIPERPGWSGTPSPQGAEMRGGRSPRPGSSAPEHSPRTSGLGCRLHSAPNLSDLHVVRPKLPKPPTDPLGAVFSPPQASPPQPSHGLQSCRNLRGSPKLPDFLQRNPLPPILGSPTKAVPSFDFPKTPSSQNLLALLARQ

IC50, ≤ 5 nM:
CCc1cc2c(cc1Nc1ncc(C(F)(F)F)c(-c3cc4c(s3)C(=O)N(C3CC3)CCS4(=O)=O)n1)CCN(CC1CC1)C2 [Example 242, 4-cyclopropyl-7-(2-((2-(cyclopropylmethyl)-7-ethyl-1,2,3,4-tetrahydroisoquinolin-6-yl)amino)-5-(trifluoromethyl)pyrimidin-4-yl)-3,4-dihydrothieno[2,3-f][1,4]thiazepin-5(2H)-one 1,1-dioxide]
CCc1cc2c(cc1Nc1ncc(C(F)(F)F)c(-c3cc4c(s3)C(=O)N(C3CC3)CCS4(=O)=O)n1)CCN(CCF)C2 [Example 243]
CCN1CCc2cc(Nc3ncc(C(F)(F)F)c(-c4cc5c(s4)C(=O)N(C4COC4)CCS5(=O)=O)n3)c(C3CC3)cc2C1 [Example 244, 7-(2-((7-cyclopropyl-2-ethyl-1,2,3,4-tetrahydroisoquinolin-6-yl)amino)-5-(trifluoromethyl)pyrimidin-4-yl)-4-(oxetan-3-yl)-3,4-dihydrothieno[2,3-f][1,4]thiazepin-5(2H)-one 1,1-dioxide]
CN1CCS(=O)(=O)c2cc(-c3nc(Nc4cc5c(cc4Cl)CN(CC4CC4)CC5)ncc3C(F)(F)F)sc2C1=O [Example 246, 7-(2-((7-chloro-2-(cyclopropylmethyl)-1,2,3,4-tetrahydroisoquinolin-6-yl)amino)-5-(trifluoromethyl)pyrimidin-4-yl)-4-methyl-3,4-dihydrothieno[2,3-f][1,4]thiazepin-5(2H)-one 1,1-dioxide]
CSc1cc2c(cc1Nc1ncc(C(F)(F)F)c(-c3cc4c(s3)C(=O)N(C3CC3)CCS4(=O)=O)n1)CCNC2 [Example 247, 4-cyclopropyl-7-(2-((7-(methylthio)-1,2,3,4-tetrahydroisoquinolin-6-yl)amino)-5-(trifluoromethyl)pyrimidin-4-yl)-3,4-dihydrothieno[2,3-f][1,4]thiazepin-5(2H)-one 1,1-dioxide]
CC(C)N1CCc2cc(Nc3ncc(C(F)(F)F)c(-c4cc5c(s4)C(=O)N(C4CC4)CCS5(=O)=O)n3)c(C3CC3)cc2C1 [Example 248, 4-cyclopropyl-7-(2-((7-cyclopropyl-2-isopropyl-1,2,3,4-tetrahydroisoquinolin-6-yl)amino)-5-(trifluoromethyl)pyrimidin-4-yl)-3,4-dihydrothieno[2,3-f][1,4]thiazepin-5(2H)-one 1,1-dioxide]
O=C1c2sc(-c3nc(Nc4cc5c(cc4C4CC4)CN(CCF)CC5)ncc3C(F)(F)F)cc2S(=O)(=O)CCN1C1CC1 [Example 249, 4-cyclopropyl-7-(2-((7-cyclopropyl-2-(2-fluoroethyl)-1,2,3,4-tetrahydroisoquinolin-6-yl)amino)-5-(trifluoromethyl)pyrimidin-4-yl)-3,4-dihydrothieno[2,3-f][1,4]thiazepin-5(2H)-one 1,1-dioxide]
CN1CCS(=O)(=O)c2cc(-c3nc(Nc4ccc(N5CCN(CC6CC6)CC5)cc4C4CC4)ncc3C(F)(F)F)sc2C1=O [Example 250, 7-(2-((2-cyclopropyl-4-(4-(cyclopropylmethyl)piperazin-1-yl)phenyl)amino)-5-(trifluoromethyl)pyrimidin-4-yl)-4-methyl-3,4-dihydrothieno[2,3-f][1,4]thiazepin-5(2H)-one 1,1-dioxide]
CN1CCC(c2ccc(Nc3ncc(C(F)(F)F)c(-c4cc5c(s4)C(=O)N(C4CC4)CCS5(=O)=O)n3)c(C3CC3)c2)CC1 [Example 252, 4-cyclopropyl-7-(2-((2-cyclopropyl-4-(1-methylpiperidin-4-yl)phenyl)amino)-5-(trifluoromethyl)pyrimidin-4-yl)-3,4-dihydrothieno[2,3-f][1,4]thiazepin-5(2H)-one 1,1-dioxide]
CCN1CCC(c2ccc(Nc3ncc(C(F)(F)F)c(-c4cc5c(s4)C(=O)N(C4CC4)CCS5(=O)=O)n3)c(C3CC3)c2)CC1 [Example 253, 4-cyclopropyl-7-(2-((2-cyclopropyl-4-(1-ethylpiperidin-4-yl)phenyl)amino)-5-(trifluoromethyl)pyrimidin-4-yl)-3,4-dihydrothieno[2,3-f][1,4]thiazepin-5(2H)-one 1,1-dioxide]
O=C1c2sc(-c3nc(Nc4ccc(C5CCN(CC6COC6)CC5)cc4C4CC4)ncc3C(F)(F)F)cc2S(=O)(=O)CCN1C1CC1 [Example 254, 4-cyclopropyl-7-(2-((2-cyclopropyl-4-(1-(oxetan-3-ylmethyl)piperidin-4-yl)phenyl)amino)-5-(trifluoromethyl)pyrimidin-4-yl)-3,4-dihydrothieno[2,3-f][1,4]thiazepin-5(2H)-one 1,1-dioxide]
CCN1CCN(c2ccc(Nc3ncc(C(F)(F)F)c(-c4cc5c(s4)C(=O)N(C4CC4)CCS5(=O)=O)n3)c(C3CC3)c2)CC1 [Example 255, 4-cyclopropyl-7-(2-((2-cyclopropyl-4-(4-ethylpiperazin-1-yl)phenyl)amino)-5-(trifluoromethyl)pyrimidin-4-yl)-3,4-dihydrothieno[2,3-f][1,4]thiazepin-5(2H)-one 1,1-dioxide]
O=C1c2sc(-c3nc(Nc4cc5c(cc4C4CC4)CN(CC4CC4)CC5)ncc3C(F)(F)F)cc2S(=O)(=O)CCN1C1COC1 [Example 256, 7-(2-((7-cyclopropyl-2-(cyclopropylmethyl)-1,2,3,4-tetrahydroisoquinolin-6-yl)amino)-5-(trifluoromethyl)pyrimidin-4-yl)-4-(oxetan-3-yl)-3,4-dihydrothieno[2,3-f][1,4]thiazepin-5(2H)-one 1,1-dioxide]
O=C1c2sc(-c3nc(Nc4cc5c(cc4C4CC4)CN(CC4COC4)CC5)ncc3C(F)(F)F)cc2S(=O)(=O)CCN1C1COC1 [Example 257, 7-(2-((7-cyclopropyl-2-(oxetan-3-ylmethyl)-1,2,3,4-tetrahydroisoquinolin-6-yl)amino)-5-(trifluoromethyl)pyrimidin-4-yl)-4-(oxetan-3-yl)-3,4-dihydrothieno[2,3-f][1,4]thiazepin-5(2H)-one 1,1-dioxide]
CCc1cc2c(cc1Nc1ncc(C(F)(F)F)c(-c3cc4c(s3)C(=O)N(CC(F)(F)F)CCS4(=O)=O)n1)CNCC2 [Example 258, 7-(2-((6-ethyl-1,2,3,4-tetrahydroisoquinolin-7-yl)amino)-5-(trifluoromethyl)pyrimidin-4-yl)-4-(2,2,2-trifluoroethyl)-3,4-dihydrothieno[2,3-f][1,4]thiazepin-5(2H)-one 1,1-dioxide]
Cc1cnc(Nc2cc3c(cc2Cl)CNCC3)nc1-c1cc2c(s1)C(=O)N(C)CCS2(=O)=O [Example 259, 7-(2-((7-chloro-1,2,3,4-tetrahydroisoquinolin-6-yl)amino)-5-methylpyrimidin-4-yl)-4-methyl-3,4-dihydrothieno[2,3-f][1,4]thiazepin-5(2H)-one 1,1-dioxide]
Cc1cnc(Nc2cc3c(cc2C2CC2)CNCC3)nc1-c1cc2c(s1)C(=O)N(C1CC1)CCS2(=O)=O [Example 260, 4-cyclopropyl-7-(2-((7-cyclopropyl-1,2,3,4-tetrahydroisoquinolin-6-yl)amino)-5-methylpyrimidin-4-yl)-3,4-dihydrothieno[2,3-f][1,4]thiazepin-5(2H)-one 1,1-dioxide]
O=C1c2sc(-c3nc(Nc4cc5c(cc4C4CC4)CNCC5)ncc3C3CC3)cc2S(=O)(=O)CCN1C1CC1 [Example 261, 4-cyclopropyl-7-(5-cyclopropyl-2-((7-cyclopropyl-1,2,3,4-tetrahydroisoquinolin-6-yl)amino)pyrimidin-4-yl)-3,4-dihydrothieno[2,3-f][1,4]thiazepin-5(2H)-one 1,1-dioxide]
CCc1cc2c(cc1Nc1ncc(C(F)(F)F)c(-c3cc4c(s3)C(=O)N(C3COC3)CCS4(=O)=O)n1)CNCC2 [Example 262, 7-(2-((6-ethyl-1,2,3,4-tetrahydroisoquinolin-7-yl)amino)-5-(trifluoromethyl)pyrimidin-4-yl)-4-(oxetan-3-yl)-3,4-dihydrothieno[2,3-f][1,4]thiazepin-5(2H)-one 1,1-dioxide]
CC(C)c1cc2c(cc1Nc1ncc(C(F)(F)F)c(-c3cc4c(s3)C(=O)N(C3CC3)CCS4(=O)=O)n1)CCNC2 [Example 263, 4-cyclopropyl-7-(2-((7-isopropyl-1,2,3,4-tetrahydroisoquinolin-6-yl)amino)-5-(trifluoromethyl)pyrimidin-4-yl)-3,4-dihydrothieno[2,3-f][1,4]thiazepin-5(2H)-one 1,1-dioxide]
CCc1cc(N2CCNCC2)ccc1Nc1ncc(C(F)(F)F)c(-c2cc3c(s2)C(=O)N(C2CC2)CCS3(=O)=O)n1 [Example 264, 4-cyclopropyl-7-(2-((2-ethyl-4-(piperazin-1-yl)phenyl)amino)-5-(trifluoromethyl)pyrimidin-4-yl)-3,4-dihydrothieno[2,3-f][1,4]thiazepin-5(2H)-one 1,1-dioxide]
CCc1cc(N2CCN(CC3CC3)CC2)ccc1Nc1ncc(C(F)(F)F)c(-c2cc3c(s2)C(=O)N(C2CC2)CCS3(=O)=O)n1 [Example 265, 4-cyclopropyl-7-(2-((4-(4-(cyclopropylmethyl)piperazin-1-yl)-2-ethylphenyl)amino)-5-(trifluoromethyl)pyrimidin-4-yl)-3,4-dihydrothieno[2,3-f][1,4]thiazepin-5(2H)-one 1,1-dioxide]
CCc1cc(N2CCN(CC3COC3)CC2)ccc1Nc1ncc(C(F)(F)F)c(-c2cc3c(s2)C(=O)N(C2CC2)CCS3(=O)=O)n1 [Example 266, 4-cyclopropyl-7-(2-((2-ethyl-4-(4-(oxetan-3-ylmethyl)piperazin-1-yl)phenyl)amino)-5-(trifluoromethyl)pyrimidin-4-yl)-3,4-dihydrothieno[2,3-f][1,4]thiazepin-5(2H)-one 1,1-dioxide]
